Laboratory results reported in ChEMBL document CHEMBL2439989 (Bioorg Med Chem Lett, 2013).

Key:
[1] = (§1) Binding affinity to sigma 2 receptor (unknown origin) by radioligand binding assay; design: species or system Homo sapiens
[2] = target: 5-hydroxytryptamine receptor 7 (Homo sapiens, UniProt P34969); assay: Displacement of [3H]5-CT from human 5HT7A receptor expressed in HEK293 cells after 60 mins; assay type: cell-based
[3] = Efflux ratio of apparent permeability from basolateral to apical side over apical to basolateral side in human Caco2 cells at 1 to 100 uM after 120 mins by UV spectroscopic analysis; assay type: ADME, cell-based; conditions: Caco-2
[4] = target: T1, Adrenergic receptor alpha-1 (Rattus norvegicus, UniProt P15823+P23944+P43140); assay: Displacement of [3H]-prazosin from alpha1 adrenergic receptor in rat cerebral cortex membranes after 50 mins; assay type: cell membranes, Membrane
T1 sequence (P15823 whole entry): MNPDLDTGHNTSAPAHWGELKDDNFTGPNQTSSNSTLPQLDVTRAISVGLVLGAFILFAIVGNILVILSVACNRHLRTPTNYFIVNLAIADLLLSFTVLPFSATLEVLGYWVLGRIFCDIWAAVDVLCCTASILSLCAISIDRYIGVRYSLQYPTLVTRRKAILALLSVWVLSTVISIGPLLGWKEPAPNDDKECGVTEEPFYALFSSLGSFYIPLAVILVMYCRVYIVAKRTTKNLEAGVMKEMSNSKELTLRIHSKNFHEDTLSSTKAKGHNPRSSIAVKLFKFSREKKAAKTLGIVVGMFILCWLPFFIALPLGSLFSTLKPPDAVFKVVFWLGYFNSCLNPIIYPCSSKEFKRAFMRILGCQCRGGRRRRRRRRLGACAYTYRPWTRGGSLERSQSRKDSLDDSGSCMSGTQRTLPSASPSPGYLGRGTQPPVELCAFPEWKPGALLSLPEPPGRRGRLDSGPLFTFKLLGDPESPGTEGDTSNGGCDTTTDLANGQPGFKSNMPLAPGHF
T1 sequence (P23944 whole entry): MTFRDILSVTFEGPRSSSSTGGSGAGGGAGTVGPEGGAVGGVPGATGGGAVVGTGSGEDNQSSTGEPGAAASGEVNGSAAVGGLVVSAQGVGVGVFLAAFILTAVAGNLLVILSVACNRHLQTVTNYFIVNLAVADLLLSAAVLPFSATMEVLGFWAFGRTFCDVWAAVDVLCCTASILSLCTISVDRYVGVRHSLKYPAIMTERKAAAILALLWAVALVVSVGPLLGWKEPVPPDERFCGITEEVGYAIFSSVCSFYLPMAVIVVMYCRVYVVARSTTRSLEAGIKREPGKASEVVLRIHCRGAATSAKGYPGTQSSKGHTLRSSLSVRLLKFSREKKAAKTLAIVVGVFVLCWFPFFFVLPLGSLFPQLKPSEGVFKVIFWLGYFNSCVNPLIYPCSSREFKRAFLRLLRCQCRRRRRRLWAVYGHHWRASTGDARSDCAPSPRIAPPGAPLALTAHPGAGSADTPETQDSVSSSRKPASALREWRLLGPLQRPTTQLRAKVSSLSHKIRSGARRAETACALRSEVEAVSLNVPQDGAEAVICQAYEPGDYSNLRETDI
T1 sequence (P43140 whole entry): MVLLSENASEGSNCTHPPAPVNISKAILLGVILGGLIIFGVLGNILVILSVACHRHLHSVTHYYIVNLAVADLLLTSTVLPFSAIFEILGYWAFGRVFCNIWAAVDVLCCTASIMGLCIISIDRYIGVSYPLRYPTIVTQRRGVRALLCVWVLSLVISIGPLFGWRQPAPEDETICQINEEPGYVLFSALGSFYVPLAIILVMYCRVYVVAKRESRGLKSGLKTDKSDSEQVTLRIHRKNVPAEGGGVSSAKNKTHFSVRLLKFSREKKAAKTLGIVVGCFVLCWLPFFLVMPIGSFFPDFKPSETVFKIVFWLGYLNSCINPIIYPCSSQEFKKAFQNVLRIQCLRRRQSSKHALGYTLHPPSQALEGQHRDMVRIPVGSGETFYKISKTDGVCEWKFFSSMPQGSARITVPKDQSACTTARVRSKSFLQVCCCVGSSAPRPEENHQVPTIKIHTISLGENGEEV

[5] = target: T2, 5-hydroxytryptamine receptor 1A (Homo sapiens, UniProt P08908); assay: Displacement of [3H]-8-OH-DPAT from human recombinant 5HT1A receptor expressed in HEK293-EBNA cells after 120 mins; assay type: cell-based
T2 sequence (P08908 whole entry): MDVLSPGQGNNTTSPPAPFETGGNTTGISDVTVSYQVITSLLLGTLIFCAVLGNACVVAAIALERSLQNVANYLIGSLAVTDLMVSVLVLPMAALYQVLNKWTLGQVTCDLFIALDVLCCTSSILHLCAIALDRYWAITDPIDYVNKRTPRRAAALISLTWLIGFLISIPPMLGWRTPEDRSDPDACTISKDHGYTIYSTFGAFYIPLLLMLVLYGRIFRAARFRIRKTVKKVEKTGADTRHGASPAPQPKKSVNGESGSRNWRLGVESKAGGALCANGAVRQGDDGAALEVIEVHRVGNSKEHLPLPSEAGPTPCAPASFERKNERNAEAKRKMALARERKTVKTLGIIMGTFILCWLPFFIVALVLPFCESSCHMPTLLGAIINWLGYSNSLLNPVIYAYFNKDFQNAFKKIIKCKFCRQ

[6] = Metabolic stability in rat liver S9 fractions at 10 uM after 30 mins by RP-HPLC analysis; assay type: ADME, subcellular, Liver S9 fraction; conditions: read-out: Stability
Homo sapiens = species on record: Homo sapiens; assay: as §1; conditions: concentration not given here
[7] = target: Sigma non-opioid intracellular receptor 1 (Homo sapiens, UniProt Q99720); assay: Binding affinity to sigma 1 receptor (unknown origin) by radioligand binding assay; conditions: for inhibition: concentration not given here
Sigma non-opioid intracellular receptor 1, sequence (Q99720 whole entry): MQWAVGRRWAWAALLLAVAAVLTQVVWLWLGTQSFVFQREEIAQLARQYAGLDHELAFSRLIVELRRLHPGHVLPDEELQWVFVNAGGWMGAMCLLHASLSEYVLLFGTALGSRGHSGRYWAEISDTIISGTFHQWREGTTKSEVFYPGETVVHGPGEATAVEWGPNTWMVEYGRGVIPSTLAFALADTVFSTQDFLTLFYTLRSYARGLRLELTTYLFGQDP

[8] = target: T2, 5-hydroxytryptamine receptor 1A; assay: Displacement of [3H]-8-OH-DPAT from human 5HT1A receptor after […]
[9] = Half life in mouse brain at 10 to 30 mg/kg, ip; assay type: ADME, organism-based; design: dose 10-30 mg/kg, route intraperitoneal
[10] = Ratio of AUC from brain to plasma of CD1 mouse at 10 mg/kg, ip qd measured within 120 mins by RP-HPLC analysis; assay type: ADME, organism-based; design: dose 10 mg/kg, route intraperitoneal; conditions: read-out: Ratio AUC
Mus musculus = assay: Elimination half life in CD1 mouse assessed as 1-[2-(4-methoxyphenyl)phenyl]piperazine at 10 mg/kg, ip qd by RP-HPLC analysis; assay type: ADME, organism-based; design: dose 10 mg/kg, route intraperitoneal; conditions: in vivo
[11] = Cmax in plasma of CD1 mouse at 10 mg/kg, ip qd after 15 mins by RP-HPLC analysis; assay type: ADME, organism-based; design: dose 10 mg/kg, route intraperitoneal
Brain = assay: Cmax in brain of CD1 mouse assessed as 1-[2-(4-methoxyphenyl)phenyl]piperazine at 10 mg/kg, ip qd after 30 mins by RP-HPLC analysis; assay type: ADME, organism-based; design: dose 10 mg/kg, route intraperitoneal; conditions: in vivo, 0.5 h
[12] = Elimination half life in CD1 mouse at 10 mg/kg, ip qd by RP-HPLC analysis; assay type: ADME, organism-based; design: dose 10 mg/kg, route intraperitoneal; conditions: in vivo, read-out: beta t1/2
[13] = Cmax in brain of CD1 mouse at 10 mg/kg, ip qd after 30 mins by RP-HPLC analysis; assay type: ADME, organism-based; design: dose 10 mg/kg, route intraperitoneal

5-hydroxytryptamine receptor 7, sequence (P34969 whole entry): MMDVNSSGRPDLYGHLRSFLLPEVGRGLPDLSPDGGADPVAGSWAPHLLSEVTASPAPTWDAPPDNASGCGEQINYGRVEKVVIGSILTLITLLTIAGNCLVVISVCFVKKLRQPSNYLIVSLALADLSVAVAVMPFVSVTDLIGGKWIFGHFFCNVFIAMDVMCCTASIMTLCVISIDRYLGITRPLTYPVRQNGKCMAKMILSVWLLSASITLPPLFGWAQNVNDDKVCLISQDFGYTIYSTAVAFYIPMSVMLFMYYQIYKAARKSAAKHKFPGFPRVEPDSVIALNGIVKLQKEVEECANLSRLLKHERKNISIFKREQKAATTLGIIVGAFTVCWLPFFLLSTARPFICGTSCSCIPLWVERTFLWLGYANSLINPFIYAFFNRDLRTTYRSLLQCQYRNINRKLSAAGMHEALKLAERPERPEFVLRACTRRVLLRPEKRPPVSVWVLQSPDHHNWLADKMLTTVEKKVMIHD

SMILES | Ki [1] [nM] | Ki [2] [nM] | efflux ratio at 2 h, up to 100 µM [3] | Ki [4] [nM] | Ki [5] [nM] | remaining at 0.5 h, 10 µM [6] [%] | inhibition (Homo sapiens) [%] | Ki [7] [nM] | inhibition [7] [%] | Ki [8] [nM] | half-life [9] [h] | Kp at 2 h [10] | beta t1/2 (Mus musculus) [h] | Cmax [11] [ng/mL] | Cmax (Brain) [ng/g] | half-life [12] [h] | Cmax [13] [ng/g]
COc1ccc(-c2ccccc2N2CCN(CCCCCC(=O)NCc3cccnc3)CC2)cc1 | 638 | 12.7 | 4.5 | 38.3 | 80 | 85 | – | – | – | – | – | – | – | – | – | – | –
N#Cc1ccc(CNC(=O)CCCCCN2CCN(c3ccccc3-c3ccccc3)CC2)cc1 | 4200 | – | – | 22.6 | – | 40 | – | > 5000 | 48 | 379 | 1.15 | – | – | – | – | – | –
COc1ccc(-c2ccccc2N2CCN(CCCCCC(=O)NCc3ccncc3)CC2)cc1 | 356 | 11.2 | – | 30.5 | 239 | 76 | – | > 5000 | 30 | – | – | – | – | – | – | – | –

Results, then the compound that gave them:

Ki [1] [nM] | Ki [2] [nM] | efflux ratio at 2 h, up to 100 µM [3] | Ki [4] [nM] | Ki [5] [nM] | remaining at 0.5 h, 10 µM [6] [%] | inhibition (Homo sapiens) [%] | Ki [7] [nM] | inhibition [7] [%] | Ki [8] [nM] | half-life [9] [h] | Kp at 2 h [10] | beta t1/2 (Mus musculus) [h] | Cmax [11] [ng/mL] | Cmax (Brain) [ng/g] | half-life [12] [h] | Cmax [13] [ng/g] | SMILES
> 10000 | 18 | – | 193 | 877 | 82 | 45 | > 5000 | 33 | – | – | – | – | – | – | – | – | COc1ccc(-c2ccccc2N2CCN(CCOCCC(=O)NCc3ccncc3)CC2)cc1
> 10000 | 23.5 | – | 295 | 918 | 78 | 39 | > 5000 | 27 | – | – | – | – | – | – | – | – | COc1ccc(-c2ccccc2N2CCN(CCOCCC(=O)NCc3ccccn3)CC2)cc1
3480 | 15.2 | – | 11.4 | 35 | 69 | – | – | – | – | – | – | – | – | – | – | – | COc1ccc(-c2ccccc2N2CCN(CCCCCC(=O)NCc3ccccn3)CC2)cc1
> 10000 | 23.8 | 3.3 | 393 | 1270 | 82 | 38 | > 5000 | 36 | – | – | 1.3 | 2 | 702 | 484 | 0.733 | 308 | COc1ccc(-c2ccccc2N2CCN(CCOCCC(=O)NCc3cccnc3)CC2)cc1
